Converted amounts (≈) assume the structure as drawn.
Tests used:
[1] = system: participants with treatment-resistant depression (TRD); assay: Montgomery-Asberg Depression Rating Scale (MADRS), Phase IIb open-label study of psilocybin adjunct to SSRI; format: in vivo, human; conditions: for MADRS total score, Mean (SD) / MADRS Remitters (MADRS total score ≤10) / MADRS Responders (≥50% decrease in MADRS total score from baseline) / MADRS total score, Change from baseline Mean (SD): 25 mg + SSRI, N = 19
Procedure: The effectiveness of 25 mg COMP360 as an adjunctive therapy in participants with TRD was explored.
The study was a Phase IIb, international multicentre, fixed-dose, open-label study. The study population included adult men and women, 18 years of age or older, with TRD. […] The duration of the current episode must be at least 3 months but not more than 2 years.
The psilocybin administration session (V3, day 1) will last approximately 6 h and will be supported by a trained therapist. The study drug will be administered simultaneously to up to six participants. Blood pressure will be monitored continuously during the session. The COMP360 administration session may be video recorded for training and adherence monitoring. After the acute effects of psilocybin pass, participants will be evaluated for safety and accompanied home. On day 2 (V4), the day following psilocybin administration, participants will be seen in person for a safety check, assessment of suicidality and clinical and self-report assessments, and to discuss their experience during the psilocybin administration session. All sessions between the therapist and the participant may be audio recorded for adherence monitoring and quality assurance.
The primary objective of this study is to evaluate the efficacy of 25 mg of psilocybin adjunct to serotonergic antidepressants in TRD participants, as assessed by the change in the Montgomery-Asberg Depression Rating Scale (MADRS) total score from baseline. Baseline is defined as the assessment score obtained on Day −1. The primary time point is week 3.
(§1) Additional objectives of this study are to assess the efficacy of psilocybin […] on the: • (a) proportion of subjects with response defined as a ≥50% decrease in MADRS total score from baseline to week 3. • (b) proportion of subjects with remission (defined as a MADRS total score ≤10) at week 3 post psilocybin administration. • (c) changes from baseline Clinical Global Impression-Severity scale (CGI-S) at week 3 post psilocybin administration.

[2] = system: participants with treatment-resistant depression (TRD); assay: Clinical Global Impression - Severity scale (CGI-S), same study; format: in vivo, human; conditions: for CGI-S Responders: 25 mg + SSRI, N = 19
Procedure: as §1

[3] = system: participants with treatment-resistant depression (TRD); assay: Clinical Global Impression - Improvement scale (CGI-I), same study; format: in vivo, human; conditions: 25 mg + SSRI, N = 19
[4] = system: participants with treatment-resistant depression (TRD); assay: Safety: treatment emergent adverse events (TEAE), same study; format: in vivo, human
From the text: Another objective is to evaluate the safety and tolerability of psilocybin in subjects with TRD based on AEs, changes in vital signs, and suicidal ideation/behaviour (measured using the Columbia-Suicide Severity Rating Scale [C-SSRS]) score at all visits.
Throughout the course of the study, all adverse events (AEs) will be monitored and recorded and will include the AE's description, start and end date, seriousness, severity, action taken, and relationship to the treatment. If AEs occur, the first concern will be the safety of the study subjects.
An AE can therefore be any unfavorable and unintended sign (including an abnormal laboratory finding, for example), symptom, or disease temporally associated with the use of a medicinal product, whether considered related to the medicinal product.
AEs will be coded by Preferred Term (PT) using the Medical Dictionary for Regulatory Activities (MedDRA) classification. All reported AEs with onset or worsening after the administration of study medication will be included in the analysis. The incidence of AEs will be summarized by treatment group, and by severity and relationship to psilocybin. Serious AEs and AEs leading to withdrawal from the study will be tabulated.
A TEAE is defined as any AE that has an onset on or after the dose of psilocybin, or any pre-existing condition that has worsened on or after the dose of psilocybin.
The incidence of TEAEs and treatment-related AEs will also be summarized by maximum severity and most-related relationship to psilocybin by MedDRA primary system organ class and PT. The summary will include the total number and percentage of subjects reporting an event.

[5] = week 3, single 25 mg dose adjunct to SSRI
[6] = 25 mg adjunct to SSRI, 19 patients
[7] = on the day of dosing or the day after
[8] = severity mild, 25 mg + SSRI, N = 19
[9] = severity moderate, 25 mg + SSRI, N = 19

In the case of `CN(C)CCc1c[nH]c2cccc(OP(=O)(O)O)c12` [COMP360, psilocybin], the “MADRS total score, Mean (SD)” value ([1]; Baseline (before dosing)) is reported as 31.7 (5.77), the “MADRS Remitters (MADRS total score ≤10)” value ([1]; Day 2) is reported as 10 (52.6) n (%) and the “MADRS Responders (≥50% decrease in MADRS total score from baseline)” value ([1]; Day 2) is reported as 12 (63.2) n (%). For the same compound, the “MADRS total score, Change from baseline Mean (SD)” value (from here on “MADRS total score, Change … (SD)”) ([1]; Day 2) was −18.3 (11.85), the “MADRS total score, Mean (SD)” value ([1]; Day 2) was 13.4 (12.92) and the “MADRS Remitters (MADRS total score ≤10)” value ([1]; Week 1) was 9 (47.4) n (%). The “MADRS Responders (≥50% decrease in MADRS total score from baseline)” value ([1]; Week 1) was 11 (57.9) n (%), the “MADRS total score, Change … (SD)” value ([1]; Week 1) was −17.1 (11.29) and the “MADRS total score, Mean (SD)” value ([1]; Week 1) was 14.6 (11.88). For the same compound, the “MADRS Remitters (MADRS total score ≤10)” value ([1]; Week 2) was 8 (42.1) n (%), the “MADRS Responders (≥50% decrease in MADRS total score from baseline)” value ([1]; Week 2) was 11 (57.9) n (%) and the “MADRS total score, Change … (SD)” value ([1]; Week 2) was −15.7 (12.02). For the same compound, the “MADRS total score, Mean (SD)” value ([1]; Week 2) was 16.0 (11.70), the “MADRS Remitters (MADRS total score ≤10)” value ([1]; Week 3) was 8 (42.1) n (%) and the “MADRS Responders (≥50% decrease in MADRS total score from baseline)” value ([1]; Week 3) was 8 (42.1) n (%). The “MADRS total score, Change … (SD)” value ([1]; Week 3) was −14.9 (11.97), the “MADRS total score, Mean (SD)” value ([1]; Week 3) was 16.8 (11.62) and the “proportion of participants who were MADRS remitters” value ([1]; by week 3, single 25 mg dose adjunct to SSRI) was ~ 42%. For the same compound, the “proportion of participants who were MADRS responders” value [1, 5] was ~ 42%, the “average reduction in MADRS total score from baseline” value ([1]; week 3, single 25 mg dose adjunct to SSRI, 19 patients) was 14.9 and the “CGI-S Responders” value ([2]; Day 2) was 8 (42.1) n (%). For the same compound, the “CGI-S Responders” value ([2]; Week 1) was 12 (63.2) n (%), the “CGI-S Responders” value ([2]; Week 2) was 11 (57.9) n (%) and the “CGI-S Responders” value ([2]; Week 3) was 10 (52.6) n (%). The “average CGI-S score” value ([2]; baseline ("moderately ill")) was 4, the “average CGI-S score” value ([2]; week 3 ("mildly ill"), single 25 mg dose adjunct to SSRI) was 3 and the “proportion of participants who were CGI-S responders” value [2, 5] was 52.6%. For the same compound, the “CGI-I Responders” value ([3]; Day 2) was 11 (57.9) n (%), the “CGI-I Responders” value ([3]; Week 1) was 12 (63.2) n (%) and the “CGI-I Responders” value ([3]; Week 2) was 8 (42.1) n (%). For the same compound, the “CGI-I Responders” value ([3]; Week 3) was 7 (36.8) n (%), the “TEAEs classed as serious (TESAEs)” value [4, 6] was “no TEAEs classed as serious” and the “TEAEs related to suicidal ideation or behaviour or intentional self-injury” value [4, 6] was “no TEAEs related to suicidal ideation or behaviour or intentional self-injury”. For the same compound, the tolerability [4, 6] was “generally well tolerated”, the “resolution of headache TEAE” value ([4]; all cases) was “all cases resolved in one or two days” and the “most common TEAE headache, events” value [4, 7] was 6 events. For the same compound, the “most common TEAE headache, participants” value [4, 7] was 6 participants, the “TEAE Blood pressure increase” value [4, 8] was 1 (5.3) n (%) and the “TEAE Diarrhoea” value [4, 8] was 1 (5.3) n (%). The “TEAE Dizziness” value [4, 8] was 1 (5.3) n (%), the “TEAE Dry mouth” value [4, 8] was 1 (5.3) n (%) and the “TEAE Fall” value [4, 8] was 1 (5.3) n (%). For the same compound, the “TEAE Headache” value [4, 8] was 5 (26.3) n (%), the “TEAE Palpitations” value [4, 8] was 1 (5.3) n (%) and the “TEAE Skin abrasion” value [4, 8] was 1 (5.3) n (%). For the same compound, the “TEAE Vertigo” value [4, 8] was 1 (5.3) n (%), the “TEAE Depression” value [4, 9] was 1 (5.3) n (%) and the “TEAE Headache” value [4, 9] was 1 (5.3) n (%). The “TEAE Hypertension” value ([4]; severity severe, 25 mg + SSRI, N = 19) was 1 (5.3) n (%) and the solubility (Solubility in water) was about 15 mg/mL (≈ 52.8 mM).

Source: patent US20260232701A1, “[…] AN […] REUPTAKE INHIBITOR FOR USE IN THE TREATMENT OF TREAMENT- RESISTANT DEPRESSION” (Compass Pathfinder Limited, priority 2021, published 2026)
